Experimental data taken from patent US8242080B2, “Inhibitors of the EGFR kinase targeting the asymmetric activating dimer interface” (The Regents of the University of California, priority 2006, dated 2012).
Where a SMILES comes first, the peptide text is derived from it.

What was measured:
[1] = target: T1, wildtype EGFR kinase domain (Homo sapiens, UniProt P00533); assay: Continuous enzyme-coupled kinase assay, substrate peptide KM; assay type: biochemical; settings: preliminary experiments, substrate peptide at various concentrations; ATP 0.5 mM
T1 construct: DNA encoding residues 672-998 of human EGFR was cloned into pFAST BAC HT; made in house; host or cells: Sf9 insect cells (baculovirus, pFAST BAC HT; b247 prints 'SD cells')
Description: (§1) A continuous enzyme-coupled kinase assay was performed to measure the kinase activity of the proteins as described in Barker et al., ((1995) Biochemistry, Vol. 34(54): 14843-51), with modifications, as described herein. The ATP concentration was kept to 0.5 mM.
(§2) The buffer used contained 10 mM MgCl2, 20 mM Tris, and pH 7.5. […] The substrate peptide was derived from the region spanning Y1173 in EGFR ([…]) (SEQ ID NO: 7). All proteins used in this assay contained the N-terminal (His)6 tag unless otherwise noted.
For comparing the specific activity of the wildtype and various mutant forms of the EGFR kinase domain in the presence and absence of lipid vesicles, the density of DOGS-NTA-Ni on lipid vesicles was kept at 5 mole percent. […] Due to this high value of KM, the values of KM and kcat were not measured directly. Instead, the value of kcat/KM was derived from a linear fit to the data obtained, using concentrations of the peptide that are much lower than the estimated value of KM (V=[S]Vmax/(KM+[S]), V˜(Vmax/KM)[S] when [S]<<KM, kcat=Vmax/amount of the enzyme, where V and Vmax are the initial velocity and maximum initial velocity, respectively. (FIG. 6A).

[2] = target: T2, activated EGFR kinase (Homo sapiens, UniProt P00533); assay: Inhibition of activated EGFR kinase (kinase assay with kinase domain attached to vesicles); assay type: biochemical; settings: read-out: IC50 inhibiting activated EGFR kinase
T2 construct: DNA encoding residues 672-998 of human EGFR was cloned into pFAST BAC HT; made in house; host or cells: Sf9 insect cells (baculovirus, pFAST BAC HT; b247 prints 'SD cells')
Description: as §1, §2
The protein concentrations of the EGFR kinase domain used in the assay ranged from 3.5 to 14 μM. The total concentration of the DOGS-NTA-Ni in the bulk solution was kept to 12.5 μM in all assays with DOG-NTA-Ni-containing vesicles. For assays of the kinase domain attached to vesicles, the protein and vesicles were preincubated at 4° C. for ˜5 min.
The wildtype EGFR kinase domain was mixed with vesicles containing 0, 0.5, 1, 2 and 5 mole percent of DOGS-NTA-Ni prior to the start of the assay. The final concentration of the protein in the assay was 3.5 μM. […]
For comparing the specific activity of the wildtype and various mutant forms of the EGFR kinase domain in the presence and absence of lipid vesicles, the density of DOGS-NTA-Ni on lipid vesicles was kept at 5 mole percent. […] Due to this high value of KM, the values of KM and kcat were not measured directly. […]

## CC(C)C[C@H](NC(=O)[C@H](Cc1ccc(O)cc1)NC(=O)[C@H](CCC(=O)O)NC(=O)[C@H](C)NC(=O)[C@H](CC(N)=O)NC(=O)[C@H](CCC(=O)O)NC(=O)[C@H](C)NC(=O)[C@@H](N)[C@@H](C)O)C(=O)N[C@@H](CCCNC(=N)N)C(=O)N[C@H](C(=O)N[C@@H](C)C(=O)N1CCC[C@H]1C(=O)N[C@@H](CCC(N)=O)C(=O)O)C(C)C [substrate peptide] (H-TAENAEYLRVAPQ-OH)
[1]
  Km: > 4 mM

## KSLPSYLNGVMPPTQSFAPDPKYVSS [40-mer peptide]
[2]
  IC50: ~10 µM
